# pEC50: −log10 of the molar value. Where a name gives a salt, the structure may show the parent alone.
# Experiments:
# [1] = system: SARS-CoV-2; details: cited from earlier work
# [2] = system: SARS-CoV-2; experiment: Antiviral activity against SARS-CoV-2 in Vero E6 cells, qRT-PCR of virus yield in supernatant at 48 h p.i.; type: cell-based; details: for anti-SARS-CoV-2 activity (in words): up to the highest drug concentrations; for pEC50: Severe acute respiratory syndrome coronavirus 2, Vero C1008, 48 h, read-out: 50% maximal effective concentration (EC50)
# [3] = Cytotoxicity by cell counting kit-8 (CCK8) assay; details: African green monkey
# [4] = system: SARS-CoV; details: cited from earlier work
# [5] = system: SARS-CoV-2 virions; experiment: Intracellular trafficking: co-localization of virions with EEs or ELs by immunofluorescence; type: cell-based; details: arbidol 10 μM, MOI 5
# [6] = system: SARS-CoV-2; experiment: Time-of-addition experiment, virus yield by qRT-PCR; type: cell-based
# Method: The antiviral efficacy was evaluated in Vero E6 cells by qRT-PCR analysis of virus yield at 48 h p.i. Data represent the mean ± standard deviation (SD) from two independent repeats. b, c Time-of-addition experiment of arbidol. Three experimental groups (Full-time, Entry, and Post-entry) were set up as described in the Supplementary Methods. At 16 h p.i., virus yield in the cell supernatant was quantified by qRT-PCR (b), and the expression of NP in infected cells was analyzed by western blots (c). […] The co-localization of virions with EEs or LEs was analyzed by immunofluorescence assays as described in the Supplementary Methods. e The portion of virions that co-localized with EEs or ELs in each group (n > 150 cells) was quantified by Image J. f Representative confocal microscopic images of virions (red) and LAMP1^+ ELs (green) in each group. The nuclei (blue) were stained with Hoechst 33258 dye. White arrows: virions co-localized with ELs; bars: 10 μm. […] For (d), statistical analysis was performed and calculated by unpaired two-tailed t test. *P < 0.05; ***P < 0.001; ns, not significant.
# Arbidol was incubated with cells during the virus entry process (Entry), the post-entry stages (Post-entry), or the entire process of infection (Full-time) and progeny virus yield was quantified by qRT-PCR. […]
# At 16 h p.i., virus production in the culture supernatants was quantified by qRT -PCR.
# [7] = humans, single oral administration of 800 mg; cited from earlier work
# [8] = system: SARS-CoV-2; experiment: Cytopathic effects (CPE) and immunofluorescence staining of infected cells; type: cell-based; details: Vero E6 cells, 48 h p.i., MOI 0.05
# [9] = system: COVID-19 patients; parameters: method as in PMID 32176772; details: retrospective study; cited from earlier work
# [10] = system: SARS-CoV-2 NP expression; experiment: Time-of-addition experiment, viral NP expression by western blot; type: cell-based; details: arbidol 10 μM, 16 h p.i.
# Method: The antiviral efficacy was evaluated in Vero E6 cells by qRT-PCR analysis of virus yield at 48 h p.i. Data represent the mean ± standard deviation (SD) from two independent repeats. b, c Time-of-addition experiment of arbidol. Three experimental groups (Full-time, Entry, and Post-entry) were set up as described in the Supplementary Methods. At 16 h p.i., virus yield in the cell supernatant was quantified by qRT-PCR (b), and the expression of NP in infected cells was analyzed by western blots (c). […] The co-localization of virions with EEs or LEs was analyzed by immunofluorescence assays as described in the Supplementary Methods. e The portion of virions that co-localized with EEs or ELs in each group (n > 150 cells) was quantified by Image J. f Representative confocal microscopic images of virions (red) and LAMP1^+ ELs (green) in each group. The nuclei (blue) were stained with Hoechst 33258 dye. White arrows: virions co-localized with ELs; bars: 10 μm. For (b) and (e), statistical analysis was performed using a one-way analysis of variance (ANOVA) with GraphPad Prism. For (d), statistical analysis was performed and calculated by unpaired two-tailed t test. *P < 0.05; ***P < 0.001; ns, not significant.
# Arbidol was incubated with cells during the virus entry process (Entry), the post-entry stages (Post-entry), or the entire process of infection (Full-time) and progeny virus yield was quantified by qRT-PCR.
# Viral RNA/DNA Extraction Kit; Takara, CAT No. 9766). Three microliter out of 30 μL total eluted RNA was used for cDNA synthesis with a PrimeScript RT Reagent Kit with gDNA Eraser (Takara, CAT No. RR047A). The qRT-PCR was performed with TB Green Premix Ex Taq II (Takara, CAT No. RR820A) on a StepOne Plus Real-time PCR system (AB). The primers used for qRT-PCR were RBD-qF1: […]
# RBD-qR1:5’-[…]-3’. The experiments were performed in triplicate with two independent repeats and the data represent the mean ± SD from […]
# Time-of-addition experiment […]
# At 16 h p.i., virus production in the culture supernatants was quantified by qRT -PCR. […]
# [11] = system: SARS-CoV-2 binding; experiment: Virus binding assay on Vero E6 cells at 4 °C, qRT-PCR; type: cell-based; details: arbidol 10 μM, 4 °C for 1 h, MOI 0.05, P < 0.001
# [12] = system: influenza viruses; details: read-out: EC50 against different influenza viruses; cited from earlier work
smiles,measurement,setting,value
"COC(=O)OCOc1c2n(ccc1=O)N([C@@H]1c3ccccc3SCc3c1ccc(F)c3F)[C@@H]1COCCN1C2=O [Baloxavir, Baloxavir marboxil]",inhibition of SARS-CoV-2 in vitro (in words),[1]; ref 11 (Choy et al.),failed to inhibit
same,anti-SARS-CoV-2 activity (in words),[2]; Vero E6 cells,failed to block SARS-CoV-2 infection
same,inhibition of SARS-CoV-2 infection,"[2]; at 50 μM, Vero E6 cells, 48 h p.i.",~ 29%
[H]/N=C(\N)N[C@H]1C=C(C(=O)O)O[C@@H]([C@H](OC)[C@H](O)CO)[C@@H]1NC(C)=O [Laninamivir],pEC50,[2],< 4.52
same,anti-SARS-CoV-2 activity (in words),[2]; Vero E6 cells,did not exhibit anti-SARS-CoV-2 activity
same,CC50 at 24 h,[3],> 100 µM
"CCC(CC)[C@H](NC(C)=O)[C@@H]1[C@H](O)[C@@H](C(=O)O)C[C@H]1N=C(N)N.O.O.O [Peramivir, Peramivir Trihydrate]",anti-SARS-CoV-2 activity (in words),[2]; Vero E6 cells,did not exhibit anti-SARS-CoV-2 activity
CC(=O)N[C@H]1[C@H]([C@H](O)[C@H](O)CO)OC(C(=O)O)=C[C@@H]1N=C(N)N [Zanamivir],pEC50,[2],< 4.00
same,anti-SARS-CoV-2 activity (in words),[2]; Vero E6 cells,did not exhibit anti-SARS-CoV-2 activity
same,inhibition of SARS-CoV (in words),[4],ineffective
same,CC50 at 24 h,[3],> 100 µM
"CCOC(=O)c1c(CSc2ccccc2)n(C)c2cc(Br)c(O)c(CN(C)C)c12 [arbidol, Arbidol hydrochloride]",virions co-localized with EEs,"[5]; 30 min p.i., DMSO 24.0%",21.4%
same,virions co-localized with EEs,"[5]; 60 min p.i., DMSO 5.1%",4.1%
same,virions co-localized with ELs,"[5]; 60 min p.i., DMSO 18.3%, P < 0.05",22.4%
same,virions co-localized with EEs,"[5]; 90 min p.i., DMSO 3.2%",2.8%
same,virions co-localized with ELs,"[5]; 90 min p.i., DMSO ~13.5%, P < 0.001",~ 23.6%
same,inhibition at 10 µM,"[6]; Severe acute respiratory syndrome coronavirus 2, 16 h, read-out: inhibition rate of virus yield, Post-entry",~55%
same,"inhibition of virus yield, Entry","[6]; arbidol 10 μM during virus entry, MOI 0.05, 16 h p.i.",~ 75%
same,Cmax,[7],~4.1 µM
same,viral NP expression and CPE due to SARS-CoV-2,[8],substantially reduced
same,discharging rate and mortality rate of COVID-19 patients (in words),[9],tendency to improve the discharging rate and decrease the mortality rate
same,"expression level of viral NP (NP/GAPDH), % of the DMSO group, Entry",[10]; Entry stage,41%
same,"expression level of viral NP (NP/GAPDH), % of the DMSO group, Full-time",[10]; Full-time,13%
same,"expression level of viral NP (NP/GAPDH), % of the DMSO group, Post-entry",[10]; Post-entry stage,61%
same,"portion of unbound virions, % of the control group",[11],156%
same,pEC50,[12],4.70 to 5.60
NC(=O)c1nc(F)c[nH]c1=O [favipiravir],efficacy against SARS-CoV-2 in vitro (in words),[1],showed a certain efficacy
